Each compound was assayed against T1, human capsaicin receptor (Homo sapiens, UniProt Q8NER1) (assay: Calcium mobilization assay, determination of antagonist activity (Example 6)). Conditions: 50% decrease in fluorescence response of cells expressing human capsaicin receptor exposed to capsaicin.
T1 construct: pBK-CMV expression construct encoding the full length human capsaicin receptor; expressed in transfected cells
Assay type: cell-based
In short: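 HEK293 cells stably expressing full-length human capsaicin receptor, Fluo-3 AM loaded, preincubated with compound 0.5–6 h at room temperature in KRH buffer pH 7.4. Challenged with capsaicin at its EC50; FLIPR fluorescence read. IC50 is concentration halving the capsaicin-induced calcium response.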

T1 sequence (Q8NER1 whole entry): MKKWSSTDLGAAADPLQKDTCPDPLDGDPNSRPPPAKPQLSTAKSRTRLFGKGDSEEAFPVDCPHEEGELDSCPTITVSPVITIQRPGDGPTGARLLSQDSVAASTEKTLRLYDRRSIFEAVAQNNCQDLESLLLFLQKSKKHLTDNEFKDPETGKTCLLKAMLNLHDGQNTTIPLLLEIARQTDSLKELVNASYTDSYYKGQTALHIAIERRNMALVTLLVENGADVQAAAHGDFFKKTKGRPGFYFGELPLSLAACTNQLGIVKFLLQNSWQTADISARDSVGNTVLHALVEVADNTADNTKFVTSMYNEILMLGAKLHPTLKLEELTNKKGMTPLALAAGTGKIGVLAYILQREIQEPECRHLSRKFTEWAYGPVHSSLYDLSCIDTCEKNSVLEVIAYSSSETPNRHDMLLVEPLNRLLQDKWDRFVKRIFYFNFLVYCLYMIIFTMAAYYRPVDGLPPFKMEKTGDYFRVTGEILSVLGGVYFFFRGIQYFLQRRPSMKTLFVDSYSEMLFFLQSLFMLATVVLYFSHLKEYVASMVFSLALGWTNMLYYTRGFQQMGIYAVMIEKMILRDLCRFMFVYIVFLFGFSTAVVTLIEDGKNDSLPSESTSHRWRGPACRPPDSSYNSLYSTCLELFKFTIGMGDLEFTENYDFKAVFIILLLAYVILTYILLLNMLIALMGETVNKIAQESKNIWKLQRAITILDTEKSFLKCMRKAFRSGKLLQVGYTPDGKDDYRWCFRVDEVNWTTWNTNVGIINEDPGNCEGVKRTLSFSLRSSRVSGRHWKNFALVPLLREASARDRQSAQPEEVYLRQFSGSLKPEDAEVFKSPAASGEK

IC50, ≤ 1 µM:
CCN(CC)c1nc(Nc2cccc(F)c2)nc(N2CCN(c3ncccc3Cl)CC2)n1 [Compound 71, 6-[4-(3-Chloro-pyridin-2-yl)-piperazin-1-yl]-N,N-diethyl-N′-(3-fluoro-phenyl)-[1,3,5]triazine-2,4-diamine]
CCN(C)c1nc(Nc2cccc(F)c2)nc(N2CCN(c3ncccc3Cl)CC2)n1 [Compound 72, 6-[4-(3-Chloro-pyridin-2-yl)-piperazin-1-yl]-N-ethyl-N′-(3-fluoro-phenyl)-N-methyl-[1,3,5]triazine-2,4-diamine]
Fc1cccc(Nc2nc(N3CCCC3)nc(N3CCN(c4ncccc4Cl)CC3)n2)c1 [Compound 73, {4-[4-(3-Chloro-pyridin-2-yl)-piperazin-1-yl]-6-pyrrolidin-1-yl-[1,3,5]triazin-2-yl}-(3-fluoro-phenyl)-amine]
CCCN(C)c1nc(Nc2cccc(F)c2)nc(N2CCN(c3ncccc3Cl)CC2)n1 [Compound 74, 6-[4-(3-Chloro-pyridin-2-yl)-piperazin-1-yl]-N-(3-fluoro-phenyl)-N′-methyl-N′-propyl-[1,3,5]triazine-2,4-diamine]
CCCCN(C)c1nc(Nc2cccc(F)c2)nc(N2CCN(c3ncccc3Cl)CC2)n1 [Compound 75, N-Butyl-6-[4-(3-chloro-pyridin-2-yl)-piperazin-1-yl]-N′-(3-fluoro-phenyl)-N-methyl-[1,3,5]triazine-2,4-diamine]
CN(C)c1nc(Nc2cccc(F)c2)nc(N2CCN(c3ncccc3Cl)CC2)n1 [Compound 76, 6-[4-(3-Chloro-pyridin-2-yl)-piperazin-1-yl]-N-(3-fluoro-phenyl)-N′,N′-dimethyl-[1,3,5]triazine-2,4-diamine]
CC1CCCN1c1nc(Nc2cccc(F)c2)nc(N2CCN(c3ncccc3Cl)CC2)n1 (stereo not drawn) [Compound 77, [4-[4-(3-Chloro-pyridin-2-yl)-piperazin-1-yl]-6-(2-methyl-pyrrolidin-1-yl)-[1,3,5]triazin-2-yl]-(3-fluoro-phenyl)-amine]
Fc1cccc(Nc2nc(N3CCCCCC3)nc(N3CCN(c4ncccc4Cl)CC3)n2)c1 [Compound 78, {4-Azepan-1-yl-6-[4-(3-chloro-pyridin-2-yl)-piperazin-1-yl]-[1,3,5]triazin-2-yl}-(3-fluoro-phenyl)-amine]
CC(C)N(C)c1nc(Nc2cccc(F)c2)nc(N2CCN(c3ncccc3Cl)CC2)n1 [Compound 79, 6-[4-(3-Chloro-pyridin-2-yl)-piperazin-1-yl]-N-(3-fluoro-phenyl)-N′-isopropyl-N′-methyl-[1,3,5]triazine-2,4-diamine]
CCN(c1nc(Nc2cccc(F)c2)nc(N2CCN(c3ncccc3Cl)CC2)n1)C(C)C [Compound 80, 6-[4-(3-Chloro-pyridin-2-yl)-piperazin-1-yl]-N-ethyl-N′-(3-fluoro-phenyl)-N-isopropyl-[1,3,5]triazine-2,4-diamine]
CCCNc1nc(Nc2cccc(F)c2)nc(N2CCN(c3ncccc3Cl)CC2)n1 [Compound 81, 6-[4-(3-Chloro-pyridin-2-yl)-piperazin-1-yl]-N-(3-fluoro-phenyl)-N′-propyl-[1,3,5]triazine-2,4-diamine]
Cc1nc(Nc2ccc(C(F)(F)F)cc2)nc(N2CCN(c3ncccc3Cl)CC2)n1 [Compound 82, {4-[4-(3-Chloro-pyridin-2-yl)-piperazin-1-yl]-6-methyl-[1,3,5]triazin-2-yl}-(4-trifluoromethyl-phenyl)-amine]
Fc1ccc(Nc2nc(N3CCOCC3)cc(N3CCN(c4ncccc4C(F)(F)F)CC3)n2)cc1 [Compound 83, (4-Fluoro-phenyl)-{4-morpholin-4-yl-6-[4-(3-trifluoromethyl-pyridin-2-yl)-piperazin-1-yl]-pyrimidin-2-yl}-amine]
FC(F)(F)c1cccnc1N1CCN(c2cc(N3CCOCC3)nc(Nc3cccc(Cl)c3)n2)CC1 [Compound 84, (3-Chloro-phenyl)-{4-morpholin-4-yl-6-[4-(3-trifluoromethyl-pyridin-2-yl)-piperazin-1-yl]-pyrimidin-2-yl}-amine]
Cc1ccccc1Nc1nc(N2CCOCC2)cc(N2CCN(c3ncccc3C(F)(F)F)CC2)n1 [Compound 85, {4-Morpholin-4-yl-6-[4-(3-trifluoromethyl-pyridin-2-yl)-piperazin-1-yl]pyrimidin-2-yl}-o-tolyl-amine]
Cc1cccc(Nc2nc(N3CCOCC3)cc(N3CCN(c4ncccc4C(F)(F)F)CC3)n2)c1 [Compound 86, {4-Morpholin-4-yl-6-[4-(3-trifluoromethyl-pyridin-2-yl)-piperazin-1-yl]-pyrimidin-2-yl}-m-tolyl-amine]
Cc1ccc(Nc2nc(N3CCOCC3)cc(N3CCN(c4ncccc4C(F)(F)F)CC3)n2)cc1 [Compound 87, {4-Morpholin-4-yl-6-[4-(3-trifluoromethyl-pyridin-2-yl)-piperazin-1-yl]-pyrimidin-2-yl}-p-tolyl-amine]
COc1cccc(Nc2nc(N3CCOCC3)cc(N3CCN(c4ncccc4C(F)(F)F)CC3)n2)c1 [Compound 88, (3-Methoxy-phenyl)-{4-morpholin-4-yl-6-[4-(3-trifluoromethyl-pyridin-2-yl)-piperazin-1-yl]-pyrimidin-2-yl}-amine]
COc1ccc(Nc2nc(N3CCOCC3)cc(N3CCN(c4ncccc4C(F)(F)F)CC3)n2)cc1 [Compound 89, (4-Methoxy-phenyl)-{4-morpholin-4-yl-6-[4-(3-trifluoromethyl-pyridin-2-yl)-piperazin-1-yl]-pyrimidin-2-yl}-amine]
CCN(CC)c1nc(Nc2ccc(F)cc2)nc(N2CCN(c3ncccc3Cl)CC2)n1 [Compound 90, 6-[4-(3-Chloro-pyridin-2-yl)-piperazin-1-yl]-N,N-diethyl-N′-(4-fluoro-phenyl)-[1,3,5]triazine-2,4-diamine]
CCN(CC)c1nc(Nc2ccc(F)c(F)c2)nc(N2CCN(c3ncccc3Cl)CC2)n1 [Compound 91, 6-[4-(3-Chloro-pyridin-2-yl)-piperazin-1-yl]-N-(3,4-difluoro-phenyl)-N′,N′-diethyl-[1,3,5]triazine-2,4-diamine]
CCN(CC)c1nc(Nc2cccc(Cl)c2)nc(N2CCN(c3ncccc3Cl)CC2)n1 [Compound 92, N-(3-Chloro-phenyl)-6-[4-(3-chloro-pyridin-2-yl)-piperazin-1-yl]-N′,N′-diethyl-[1,3,5]triazine-2,4-diamine]
CCN(CC)c1nc(Nc2cccc(OC)c2)nc(N2CCN(c3ncccc3Cl)CC2)n1 [Compound 93, 6-[4-(3-Chloro-pyridin-2-yl)-piperazin-1-yl]-N,N-diethyl-N′-(3-methoxy-phenyl)-[1,3,5]triazine-2,4-diamine]
CCN(CC)c1nc(Nc2ccc(F)cc2)nc(N2CCN(c3ccccn3)CC2)n1 [Compound 94, N,N-Diethyl-N′-(4-fluoro-phenyl)-6-(4-pyridin-2-yl-piperazin-1-yl)-[1,3,5]triazine-2,4-diamine]
CCN(CC)c1nc(Nc2ccc(F)c(F)c2)nc(N2CCN(c3ccccn3)CC2)n1 [Compound 95, N-(3,4-Difluoro-phenyl)-N′,N′-diethyl-6-(4-pyridin-2-yl-piperazin-1-yl)-[1,3,5]triazine-2,4-diamine]
FC(F)(F)c1ccc(Nc2nc(N3CCOCC3)nc(N3CCN(c4ncccc4Cl)CC3)n2)cc1 [Compound 96, {4-[4-(3-Chloro-pyridin-2-yl)-piperazin-1-yl]-6-morpholin-4-yl-[1,3,5]triazin-2-yl}-(4-trifluoromethyl-phenyl)-amine]
Clc1cccnc1N1CCN(c2nc(Nc3ccccc3)nc(N3CCOCC3)n2)CC1 [Compound 97, {4-[4-(3-Chloro-pyridin-2-yl)-piperazin-1-yl]-6-morpholin-4-yl-[1,3,5]triazin-2-yl}-phenyl-amine]
Fc1ccc(Nc2cc(N3CCN(c4ccccn4)CC3)nc(N3CCOCC3)n2)cc1 [Compound 98, (4-Fluoro-phenyl)-[2-morpholin-4-yl-6-(4-pyridin-2-yl-piperazin-1-yl)-pyrimidin-4-yl]-amine]
CCN(CC)c1nc(Nc2ccc(F)c(F)c2)nc(N2CCN(c3ncccc3C(F)(F)F)C[C@H]2C)n1 [Compound 99, N-(3,4-Difluoro-phenyl)-N′,N′-diethyl-6-[2-methyl-4-(3-trifluoromethyl-pyridin-2-yl)-piperazin-1-yl]-[1,3,5]triazine-2,4-diamine (R)]
CCN(CC)c1nc(Nc2ccc(F)c(F)c2)nc(N2CCN(c3ncccc3Cl)C[C@H]2C)n1 [Compound 100, 6-[4-(3-Chloro-pyridin-2-yl)-2-methyl-piperazin-1-yl]-N-(3,4-difluoro-phenyl)-N′,N′-diethyl-[1,3,5]triazine-2,4-diamine (R)]
C[C@@H]1CN(c2ncccc2Cl)CCN1c1nc(Nc2ccc(F)c(F)c2)nc(N2CCOCC2)n1 [Compound 101, {4-[4-(3-Chloro-pyridin-2-yl)-2-methyl-piperazin-1-yl]-6-morpholin-4-yl-[1,3,5]triazin-2-yl}-(3,4-difluoro-phenyl)-amine (R)]
CCN(CC)c1nc(Nc2ccc(F)c(F)c2)nc(N2CCN(c3ncccc3S(C)(=O)=O)C[C@H]2C)n1 [Compound 102, N-(3,4-Difluoro-phenyl)-N′,N′-diethyl-6-[4-(3-methanesulfonyl-pyridin-2-yl)-2-methyl-piperazin-1-yl]-[1,3,5]triazine-2,4-diamine (R)]
C[C@@H]1CN(c2ncccc2S(C)(=O)=O)CCN1c1nc(Nc2ccc(F)c(F)c2)nc(N2CCOCC2)n1 [Compound 103, (3,4-Difluoro-phenyl)-{4-[4-(3-methanesulfonyl-pyridin-2-yl)-2-methyl-piperazin-1-yl]-6-morpholin-4-yl-[1,3,5]triazin-2-yl}-amine (R)]
